Measurements published in ChEMBL document CHEMBL5321275, “Discovery, Optimization, and Evaluation of Novel N-(Benzimidazol-5-yl)-1,3,4-thiadiazol-2-amine Analogues as Potent STAT3 Inhibitors for Cancer Treatment” (J Med Chem, 2023).

Legend:
HEK-Blue IL-6 = test: Inhibition of IL-6/JAK/STAT3 signalling pathway in HEK-Blue IL-6 cells at 10 uM incubated for 16 hrs by QUANTI-blue assay relative to control; type: cell-based; conditions: Homo sapiens
[1] = Inhibition of IL-6/JAK/STAT3 signalling pathway in HEK-Blue IL-6 cells incubated for 16 hrs by QUANTI-blue assay; type: cell-based; conditions: Homo sapiens, HEK-Blue IL-6, 16 h
DU-145 [2] = test: Antiproliferative activity against human DU-145 cells assessed as inhibition of cell growth at 10 uM measured after 96 hrs by MTT assay relative to control; type: functional
DU-145 [3] = test: Antiproliferative activity against human DU-145 cells assessed as inhibition of cell growth measured after 96 hrs by MTT assay; type: functional, cell-based; conditions: DU-145, 96 h
MDA-MB-231 [4] = test: Antiproliferative activity against human MDA-MB-231 cells assessed as inhibition of cell growth at 10 uM measured after 96 hrs by MTT assay relative to control; type: functional
MDA-MB-231 [5] = test: Antiproliferative activity against human MDA-MB-231 cells assessed as inhibition of cell growth measured after 96 hrs by MTT assay; type: functional, cell-based; conditions: MDA-MB-231, 96 h

Row | IC50 [1] | IC50 (DU-145 [3]) | IC50 (MDA-MB-231 [5]) | Compound | inhibition (HEK-Blue IL-6) | inhibition at 10 µM (DU-145 [2]) | inhibition at 10 µM (MDA-MB-231 [4])
1 | 1.53 µM | > 10 µM | > 10 µM | Fc1cc2c(cc1Nc1nnc(-c3cccc(C(F)(F)F)c3)s1)nc(-c1cccc(C(F)(F)F)c1)n2C1CC1 | 72.8% | -0.72% | 4.54%
2 |  | > 10 µM | > 10 µM | Fc1ccc(-c2nc3cc(Nc4nnc(-c5cccc(C(F)(F)F)c5)s4)c(F)cc3n2C2CC2)cc1 |  | -3.68% | 8.11%
3 | 4.01 µM | 2.17 µM | 0.96 µM | CN1CCN(c2cc3c(cc2Nc2nnc(-c4cccc(C#N)c4)s2)nc(-c2ccc(F)cc2)n3C2CC2)CC1 | 83.7% | 85.9% | 92.7%
4 | 7.88 µM | > 10 µM | > 10 µM | CC(C)c1ccc(-c2nnc(Nc3cc4nc(-c5ccc(F)cc5)n(C5CC5)c4cc3F)s2)cc1 | 61.9% | 17.9% | 1.85%
5 | > 10 µM |  |  | Fc1ccc(-c2nc3cc(Nc4nnc(-c5ccc(Cl)c(C(F)(F)F)c5)s4)c(F)cc3n2C2CC2)cc1 | 34.2% |  | 
6 | 3.52 µM | 9.37 µM | 6.47 µM | CN1CCN(c2cc3c(cc2Nc2nnc(-c4cccc(F)c4)s2)nc(-c2ccc(F)cc2)n3C2CC2)CC1 | 82.1% | 56.4% | 91.9%
7 | > 10 µM |  |  | CN1CCN(c2cc3c(cc2Nc2nnc(-c4ccccc4)s2)nc(-c2cccnc2)n3C2CC2)CC1 | 25.5% |  | 
8 | > 10 µM |  |  | Fc1cc2c(cc1Nc1nnc(-c3cccc(C(F)(F)F)c3)s1)nc(-c1ccccc1)n2C1CC1 | 25.6% |  | 
9 | 3.29 µM | > 10 µM | > 10 µM | CN(C)C1CCN(c2cc3c(cc2Nc2nnc(-c4ccccc4)s2)nc(-c2ccc(F)cc2)n3C2CC2)CC1 | 69.2% | -2.92% | 19.5%
10 | 2.42 µM | 4.04 µM | 3.21 µM | CC(C)N1CCN(c2cc3c(cc2Nc2nnc(-c4ccccc4)s2)nc(-c2ccc(F)cc2)n3C2CC2)CC1 | 77.1% | 79.9% | 90.1%
11 | 5.28 µM | > 10 µM | > 10 µM | CN1CCN(c2cc3c(cc2Nc2nnc(-c4ccccc4)s2)nc(-c2ccc(F)cc2)n3C2CCCC2)CC1 | 77.5% | -26.6% | -5.02%
12 | 0.52 µM | > 10 µM | > 10 µM | CCOc1cc2c(cc1Nc1nnc(-c3cccc(C#N)c3)s1)nc(-c1ccc(F)cc1)n2C1CC1 | 92.5% | 14% | -5.91%
13 | 4.51 µM |  |  | CN1CCN(c2cc3c(cc2Nc2nnc(-c4ccccc4)s2)nc(-c2cccc(F)c2)n3C2CC2)CC1 | 56.6% |  | 
14 | 6.27 µM |  |  | CN1CCN(c2cc3c(cc2Nc2nnc(-c4ccccc4)s2)nc(-c2ccc(F)cc2)n3C2CCC2)CC1 | 64.7% |  | 
15 | 5.79 µM |  |  | Fc1ccc(-c2nc3cc(Nc4nnc(-c5ccccc5)s4)ccc3n2C2CC2)cc1 | 66.1% |  | 
16 | 7.56 µM |  |  | CN1CCN(c2cc3c(cc2Nc2nnc(-c4ccccc4)s2)nc(-c2ccccc2F)n3C2CC2)CC1 | 63.3% |  | 
17 | 4.84 µM | > 10 µM | > 10 µM | Fc1ccc(-c2nc3cc(Nc4nnc(-c5ccc(C(F)(F)F)cc5)s4)c(F)cc3n2C2CC2)cc1 | 64.1% | -25% | -2.76%
18 | > 10 µM |  |  | CC(C)(C)c1ccc(-c2nnc(Nc3cc4nc(-c5ccc(F)cc5)n(C5CC5)c4cc3F)s2)cc1 | 36.1% |  | 
19 | 3.51 µM | > 10 µM | > 10 µM | CCCCn1c(-c2ccc(F)cc2)nc2cc(Nc3nnc(-c4ccccc4)s3)c(N3CCN(C)CC3)cc21 | 80.7% | -9.69% | -14.4%

Row | IC50 [1] | IC50 (DU-145 [3]) | IC50 (MDA-MB-231 [5]) | Compound | inhibition (HEK-Blue IL-6) | inhibition at 10 µM (DU-145 [2]) | inhibition at 10 µM (MDA-MB-231 [4])
20 | 2.23 µM | 5.66 µM | 3.98 µM | CN1CCN(c2cc3c(cc2Nc2nnc(-c4cccc(C(F)(F)F)c4)s2)nc(-c2ccc(F)cc2)n3C2CC2)CC1 | 100% | 64.6% | 94.1%
21 | > 10 µM |  |  | CCCn1c(-c2cccc(F)c2)nc2cc(Nc3nnc(-c4ccccc4C(F)(F)F)s3)c(F)cc21 | 46.2% |  | 
22 | > 10 µM |  |  | CN(C)CCn1c(-c2ccc(F)cc2)nc2cc(Nc3nnc(-c4ccccc4)s3)c(N3CCN(C)CC3)cc21 | 2.11% |  | 
23 | 3.37 µM | > 10 µM | > 10 µM | Fc1ccc(-c2nc3cc(Nc4nnc(-c5cccc(Cl)c5)s4)c(F)cc3n2C2CC2)cc1 | 67.8% | -7.76% | -2.05%
24 | 6.42 µM |  |  | COCCn1c(-c2ccc(F)cc2)nc2cc(Nc3nnc(-c4ccccc4)s3)c(N3CCN(C)CC3)cc21 | 65.4% |  | 
25 | 2.21 µM | 1.84 µM | 1.66 µM | O=[N+]([O-])c1ccc2c(c1)S(=O)(=O)C=C2 | 107% | 79.6% | 92.2%
26 | 3.96 µM | > 10 µM | > 80 µM | CCCCCn1c(-c2ccc(F)cc2)nc2cc(Nc3nnc(-c4ccccc4)s3)c(N3CCN(C)CC3)cc21 | 83.2% | -8.3% | -7.99%
27 | > 10 µM |  |  | Fc1ccc(-c2nc3cc(Nc4nnc(-c5ccccc5)s4)c(N4CCN(c5ccccc5)CC4)cc3n2C2CC2)cc1 | 21.3% |  | 
28 | 1.09 µM | > 10 µM | > 10 µM | COc1cc(-c2nnc(Nc3cc4nc(-c5ccc(F)cc5)n(C5CC5)c4cc3F)s2)cc(OC)c1OC | 83.5% | -10.3% | -11.5%
29 | > 10 µM |  |  | CCCn1c(-c2cccc(F)c2)nc2cc(Nc3nnc(-c4cccc(C(F)(F)F)c4)s3)c(F)cc21 | 20.2% |  | 
30 | > 10 µM |  |  | Fc1ccc(Oc2cc3c(cc2Nc2nnc(-c4cccc(C(F)(F)F)c4)s2)nc(-c2ccc(F)cc2)n3C2CC2)cc1 | 6.34% |  | 
31 | > 10 µM |  |  | Fc1ccc(-c2nc3cc(Nc4nnc(-c5ccc(C(F)(F)F)cc5)s4)c(N4CCOCC4)cc3n2C2CC2)cc1 | 0.29% |  | 
32 | > 10 µM |  |  | CN1CCN(c2cc3c(cc2Nc2nnc(-c4cccnc4)s2)nc(-c2ccc(F)cc2)n3C2CC2)CC1 | -0.36% |  | 
33 | > 10 µM |  |  | Fc1ccc(-c2nc3cc(Nc4nnc(-c5cccc(C(F)(F)F)c5)s4)ccc3n2C2CC2)cc1 | 34.5% |  | 
34 | > 10 µM |  |  | CCCn1c(-c2cccc(F)c2)nc2cc(Nc3nnc(-c4ccc(C(F)(F)F)cc4)s3)c(F)cc21 | 54.6% |  | 
35 | > 10 µM |  |  | Fc1ccc(-c2nc3cc(Nc4nnc(-c5ccc(C(F)(F)F)cc5)s4)ccc3n2C2CC2)cc1 | 8.71% |  | 
36 | 3.92 µM |  |  | Fc1cc2c(cc1Nc1nnc(-c3ccccc3F)s1)nc(-c1ccccc1F)n2C1CC1 | 63.6% |  | 
37 | > 10 µM |  |  | Fc1cc2c(cc1Nc1nnc(-c3cccc(C(F)(F)F)c3)s1)nc(-c1ccc(C(F)(F)F)cc1)n2C1CC1 | 29.6% |  | 
